Source: patent publication US20240325419A1, “PHARMACEUTICAL COMPOSITION FOR RESTORING PHYSIOLOGICAL PROCESSES AND CELLS OF ORGANISM” (priority 2022, published 2024)
“Also recorded” adds a separate entry of the source.

Assays:
Caenorhabditis elegans = test: Life duration of Caenorhabditis elegans on NGM plates; type: in vivo
Protocol: ADAM QD/T, TiO2 aqueous nanodispersion used for researches on the animals, was sterile nanodispersion, of pharmaceutical class, in concentration 0.6 mg/ml. • 2. […] SBECD, Sulfobutylated beta-cyclodextrin sodium salt, Budapest, Hungary DEXOLVE® pharma grade (DS 6.5), powder in concentration 0.3 mg/ml. Protocol of researches and step-by-step methodology: • embryos were isolated (synchronization) • larvae of identical phase (L4) were placed on the standard NGM (nematode growth medium) […] plates in the Petri dishes. • all the animals were in the age from first up to ninth day of life and lived in a medium containing the above-listed components, after ninth day they were placed in standard […] without other additions as FUDR. • deaths of the animals were constantly registered as a time function • the curves of life duration were created on the basis of read indications. Composition of NGM plates (all the chemical compounds and reagents of analytical class); NaCl, agar, peptone, 5 mg/ml cholesterol in ethanol, non-autoclaved, 1 M K3PO4 buffer pH 6.0 (108.3 g KH2PO4, 35.6 g K2HPO4, H2O for 1 liter), 1M MgSO4, Petri dishes, peristaltic pump. The results present average of three parallel, independent definitions, research cycles of C. elegans.

[1] = test system: HT-1080 human fibrosarcoma cell line; test: Cytotoxicity on the cells culture HT1080; type: cell-based; conditions: TiO2 or SiO2 600 mcg/ml, cyclodextrin 5000 mcg/ml, Doxorubicin 200 mcg/ml
Protocol: In these studies cells (5×10^4) were seeded in 6-well plates and cultured in RPMI-1640 medium containing 10% fetal bovine serum. The cultures were incubated for 2 hours in CO2 thermostate at 37° C. After the preincubation period the medium was removed, the cells were washed with physiological saline (2×1 ml 0.9% NaCl) and exposed to testing samples applying various concentrations for 60 min. After removing the test compounds fresh RPMI 1640 medium containing 10% FBS was added and the cultures were incubated for further 24 hours at 37° C. in humidified thermostate (5% CO2). At the end of the posttreatment period the medium as supernatants of the cultures, containing released cells was removed and saved for cell counting.

human tumour cell lines = test: Cytotoxicity and cytomorphology of test substances, conclusions (cell line not given); conditions: Doxorubicin 0.2 mg/ml; HPBCD 5 mg/ml

Molecule | Number of living C. elegans (%) (Caenorhabditis elegans; life duration 10 days) | Number of living C. elegans (%) (Caenorhabditis elegans; life duration 13 days) | Number of living C. elegans (%) (Caenorhabditis elegans; life duration 14 days) | Number of living C. elegans (%) (Caenorhabditis elegans; life duration 15 days) | Number of living C. elegans (%) (Caenorhabditis elegans; life duration 18 days) | Cytotoxicity [1] | Cytotoxicity (human tumour cell lines)
Sulfobutylated beta-cyclodextrin sodium salt [SBECD] | 90 | 41 | 20 | 7 | 0 |  | 
COc1cccc2c1C(=O)c1c(O)c3c(c(O)c1C2=O)C[C@@](O)(C(=O)CO)C[C@@H]3O[C@H]1C[C@H](N)[C@H](O)[C@H](C)O1 [Doxorubicin] |  |  |  |  |  | evident cytotoxicity; also recorded: significant cytotoxicity | moderate cytotoxicity
